Literature values in paper PMC12177174 (iScience, 2025).

Assays:
[1] = tested on: heart repair; conditions: cited from earlier work
[2] = 20 patients, median 22 weeks treatment; cited from earlier work
[3] = tested on: bone mineral density; conditions: cited from earlier work
[4] = cited from earlier work
[5] = tested on: Axin2 mRNA; conditions: cited from earlier work
[6] = tested on: skin fibrosis; conditions: cited from earlier work
[7] = tested on: tumor cell proliferation; conditions: cited from earlier work

Compound | heart repair following cardiac injury [1] | patients who developed fragility fractures [2] [%] | bone mineral density [3] | participants reporting dysgeusia [4] [%] | participants with reduced tumor size ([4]; various advanced cancers) [%] | mean reduction in AXIN2 mRNA levels in skin biopsies [5] | skin fibrosis [6] | tumor cell proliferation [7]
Cc1cc(-c2ncc(CC(=O)Nc3ccc(-c4cnccn4)cn3)cc2C)ccn1 [WNT974] | promoted heart repair | 45 | caused loss of bone mineral density | ≤ 50 | 74 | 50%–60% | prevented progression of skin fibrosis | –
Cc1c(-c2ccnc(C(F)(F)F)c2)ncn1CC(=O)Nc1ccc(-c2cnccn2)cn1 [RXC004] | – | – | – | – | – | – | – | inhibits tumor cell proliferation
